{"source": "patent US20040142049A1", "about": "“Compositions having tnf production inhibitory effect and tnf production inhibitors” (priority 2001, published 2004)", "origin": "cited, not measured here", "system": "TNF", "settings": "background art, prior publications", "data": [{"smiles": "COc1cc(/C=C/C(=O)CC(=O)/C=C/c2ccc(O)c(OC)c2)ccc1O", "note": "[curcumin]", "values": [{"measurement": "TNF production inhibitory effect (in words)", "result": "has a TNF production inhibitory effect"}]}]}
